# Data published in BigSolDB 2.1.
structure (smiles),measurement,setting,value
COC1CCC2(CC1)NC(=O)C(c1cc(C)ccc1C)=C2O (stereo not given),solubility (mole fraction),"in acetonitrile, 288.15 K",0.000317
same,solubility (mole fraction),"in acetonitrile, 293.15 K",0.000345
same,solubility (mole fraction),"in acetonitrile, 298.15 K",0.000375
same,solubility (mole fraction),"in acetonitrile, 303.15 K",0.000463
same,solubility (mole fraction),"in acetonitrile, 308.15 K",0.00057
same,solubility (mole fraction),"in acetonitrile, 313.15 K",0.000681
same,solubility (mole fraction),"in acetonitrile, 318.15 K",0.000791
same,solubility (mole fraction),"in acetonitrile, 323.15 K",0.000923
same,solubility (mole fraction),"in acetonitrile, 328.15 K",0.0011
same,solubility (mole fraction),"in ethanol, 288.15 K",0.00255
same,solubility (mole fraction),"in ethanol, 293.15 K",0.00276
same,solubility (mole fraction),"in ethanol, 298.15 K",0.00302
same,solubility (mole fraction),"in ethanol, 303.15 K",0.00341
same,solubility (mole fraction),"in ethanol, 308.15 K",0.00392
same,solubility (mole fraction),"in ethanol, 313.15 K",0.00447
same,solubility (mole fraction),"in ethanol, 318.15 K",0.00513
same,solubility (mole fraction),"in ethanol, 323.15 K",0.00596
same,solubility (mole fraction),"in ethanol, 328.15 K",0.00681
same,solubility (mole fraction),"in methanol, 288.15 K",0.00339
same,solubility (mole fraction),"in methanol, 293.15 K",0.00379
same,solubility (mole fraction),"in methanol, 298.15 K",0.00431
same,solubility (mole fraction),"in methanol, 303.15 K",0.00473
same,solubility (mole fraction),"in methanol, 308.15 K",0.00528
same,solubility (mole fraction),"in methanol, 313.15 K",0.00589
same,solubility (mole fraction),"in methanol, 318.15 K",0.00656
same,solubility (mole fraction),"in methanol, 323.15 K",0.00735
same,solubility (mole fraction),"in methanol, 328.15 K",0.00832
same,solubility (mole fraction),"in n-propanol, 288.15 K",0.00252
same,solubility (mole fraction),"in n-propanol, 293.15 K",0.00303
same,solubility (mole fraction),"in n-propanol, 298.15 K",0.00348
same,solubility (mole fraction),"in n-propanol, 303.15 K",0.00402
same,solubility (mole fraction),"in n-propanol, 308.15 K",0.00453
same,solubility (mole fraction),"in n-propanol, 313.15 K",0.00518
same,solubility (mole fraction),"in n-propanol, 318.15 K",0.00603
same,solubility (mole fraction),"in n-propanol, 323.15 K",0.00697
same,solubility (mole fraction),"in n-propanol, 328.15 K",0.00799
same,solubility (mole fraction),"in water, 288.15 K",1.96e-06
same,solubility (mole fraction),"in water, 293.15 K",3.14e-06
same,solubility (mole fraction),"in water, 298.15 K",4.08e-06
same,solubility (mole fraction),"in water, 303.15 K",5.12e-06
same,solubility (mole fraction),"in water, 308.15 K",6.15e-06
same,solubility (mole fraction),"in water, 313.15 K",7.28e-06
same,solubility (mole fraction),"in water, 318.15 K",8.43e-06
same,solubility (mole fraction),"in water, 323.15 K",9.14e-06
same,solubility (mole fraction),"in water, 328.15 K",1.05e-05
